Reference: the NIST ThermoML archive (doi:10.1021/je025657+)

COC(F)(F)C(F)(F)F [methyl pentafluoroethyl ether]
Settings | mass density [kg/m3]
240 K, 142.7 kPa, Liquid | 1425.44
240 K, 525.8 kPa, Liquid | 1426.3
240 K, 1016.6 kPa, Liquid | 1427.42
240 K, 1498.9 kPa, Liquid | 1428.49
240 K, 2020 kPa, Liquid | 1429.64
240 K, 2495.8 kPa, Liquid | 1430.67
240 K, 3020.1 kPa, Liquid | 1431.83
240 K, 3526.2 kPa, Liquid | 1432.91
240 K, 4022.9 kPa, Liquid | 1433.98
240 K, 4516.7 kPa, Liquid | 1435.03
240 K, 5006.8 kPa, Liquid | 1436.06
240 K, 5507.4 kPa, Liquid | 1437.1
240 K, 6031.3 kPa, Liquid | 1438.18
240 K, 6522.4 kPa, Liquid | 1439.2
240 K, 6991.3 kPa, Liquid | 1440.14
250 K, 508.4 kPa, Liquid | 1401.06
250 K, 999.4 kPa, Liquid | 1402.28
250 K, 1512.6 kPa, Liquid | 1403.57
250 K, 1981.4 kPa, Liquid | 1404.73
250 K, 2484.2 kPa, Liquid | 1405.96
250 K, 3006.1 kPa, Liquid | 1407.22
250 K, 3493.4 kPa, Liquid | 1408.39
250 K, 4031.6 kPa, Liquid | 1409.66
250 K, 4527.8 kPa, Liquid | 1410.82
250 K, 5017.1 kPa, Liquid | 1411.96
250 K, 5520.4 kPa, Liquid | 1413.12
250 K, 5982.1 kPa, Liquid | 1414.17
250 K, 6505.2 kPa, Liquid | 1415.37
250 K, 6941.8 kPa, Liquid | 1416.34
260 K, 86.5 kPa, Liquid | 1374.31
260 K, 500.8 kPa, Liquid | 1375.48
260 K, 1002.7 kPa, Liquid | 1376.9
260 K, 1516.5 kPa, Liquid | 1378.35
260 K, 2001 kPa, Liquid | 1379.71
260 K, 2509.7 kPa, Liquid | 1381.11
260 K, 3006.5 kPa, Liquid | 1382.45
260 K, 3509.7 kPa, Liquid | 1383.8
260 K, 4009.1 kPa, Liquid | 1385.14
260 K, 4516.6 kPa, Liquid | 1386.48
260 K, 5008.9 kPa, Liquid | 1387.75
260 K, 5494.8 kPa, Liquid | 1389
260 K, 6029.6 kPa, Liquid | 1390.36
260 K, 6497.8 kPa, Liquid | 1391.53
260 K, 6976.1 kPa, Liquid | 1392.71
270 K, 526.2 kPa, Liquid | 1348.82
270 K, 1033.1 kPa, Liquid | 1350.45
270 K, 1545.3 kPa, Liquid | 1352.07
270 K, 2026.1 kPa, Liquid | 1353.57
270 K, 2522.2 kPa, Liquid | 1355.11
270 K, 3044.2 kPa, Liquid | 1356.7
270 K, 3549.7 kPa, Liquid | 1358.22
270 K, 3956.7 kPa, Liquid | 1359.43
270 K, 4491.8 kPa, Liquid | 1360.99
270 K, 5023.1 kPa, Liquid | 1362.54
270 K, 5514.7 kPa, Liquid | 1363.95
270 K, 6030.4 kPa, Liquid | 1365.42
270 K, 6512.4 kPa, Liquid | 1366.76
270 K, 6977.7 kPa, Liquid | 1367.99
280 K, 445.3 kPa, Liquid | 1320.87
280 K, 957.2 kPa, Liquid | 1322.76
280 K, 1474.3 kPa, Liquid | 1324.63
280 K, 1861.1 kPa, Liquid | 1326.03
280 K, 2459.7 kPa, Liquid | 1328.12
280 K, 2951.9 kPa, Liquid | 1329.83
280 K, 3497.7 kPa, Liquid | 1331.69
280 K, 3963.9 kPa, Liquid | 1333.26
280 K, 4513.2 kPa, Liquid | 1335.09
280 K, 4981.9 kPa, Liquid | 1336.62
280 K, 5492.2 kPa, Liquid | 1338.26
280 K, 5847.1 kPa, Liquid | 1339.41
280 K, 6466.8 kPa, Liquid | 1341.37
280 K, 7194.3 kPa, Liquid | 1343.64
290 K, 83.3 kPa, Liquid | 1290.78
290 K, 504.8 kPa, Liquid | 1292.57
290 K, 981.6 kPa, Liquid | 1294.58
290 K, 1520.9 kPa, Liquid | 1296.8
290 K, 2011.5 kPa, Liquid | 1298.79
290 K, 2520.4 kPa, Liquid | 1300.82
290 K, 2991.9 kPa, Liquid | 1302.67
290 K, 3491.2 kPa, Liquid | 1304.61
290 K, 4006.3 kPa, Liquid | 1306.56
290 K, 4525.3 kPa, Liquid | 1308.51
290 K, 4985.1 kPa, Liquid | 1310.22
290 K, 5527.4 kPa, Liquid | 1312.2
290 K, 6024.9 kPa, Liquid | 1313.97
290 K, 6484.8 kPa, Liquid | 1315.61
290 K, 6967.8 kPa, Liquid | 1317.32
300 K, 45.7 kPa, Gas | 2.84
300 K, 56.7 kPa, Gas | 3.73
300 K, 82 kPa, Gas | 5.31
300 K, 93.3 kPa, Gas | 6.05
300 K, 98.2 kPa, Gas | 6.15
300 K, 116.1 kPa, Gas | 7.55
300 K, 131.7 kPa, Gas | 8.6
300 K, 165.9 kPa, Gas | 10.97
300 K, 188.8 kPa, Gas | 12.58
300 K, 218.2 kPa, Gas | 15.51
300 K, 225.7 kPa, Liquid | 1260.66
300 K, 238.5 kPa, Liquid | 1260.72
300 K, 491.2 kPa, Liquid | 1262.72

Liquid
Settings | mass density [kg/m3]
240 K | 1425.22
250 K | 1399.85
260 K | 1374.2
270 K | 1347.19
280 K | 1319.62
290 K | 1291.09
